Source: PubChem BioAssay (NCI)
Where “and” joins values, the source holds several entries; their conditions need not be identical. Equal values may be shown once.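 96-well plates; 48 h exposure; 5 concentrations. Endpoints by linear interpolation between flanking doses. Not reached: highest tested concentration assigned. GI50 = concentration required for 50% inhibition of growth. TGI denotes the concentration required for complete inhibition of growth.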

Key:
Experiment in all cases: NCI anticancer screen, dose series, 48 h
CAKI-1 renal = system: CAKI-1 renal
HCT-116 colon = system: HCT-116 colon
HL-60(TB) leukemia = system: HL-60(TB) leukemia
HT29 colon = system: HT29 colon
LOX IMVI melanoma = system: LOX IMVI melanoma
OVCAR-3 ovarian = system: OVCAR-3 ovarian
OVCAR-5 ovarian = system: OVCAR-5 ovarian
RPMI-8226 leukemia = system: RPMI-8226 leukemia
SK-MEL-28 melanoma = system: SK-MEL-28 melanoma
SNB-19 CNS = system: SNB-19 CNS

| SMILES | TGI (CAKI-1 renal) | TGI (HCT-116 colon) | TGI (HL-60(TB) leukemia) | TGI (HT29 colon) | TGI (LOX IMVI melanoma) | TGI (OVCAR-3 ovarian) | TGI (OVCAR-5 ovarian) | TGI (RPMI-8226 leukemia) [µM] | TGI (SK-MEL-28 melanoma) | TGI (SNB-19 CNS) | GI50 (CAKI-1 renal) [µM] | GI50 (HCT-116 colon) [µM] | GI50 (HL-60(TB) leukemia) | GI50 (HT29 colon) [µM] | GI50 (LOX IMVI melanoma) | GI50 (OVCAR-3 ovarian) | GI50 (OVCAR-5 ovarian) | GI50 (RPMI-8226 leukemia) [µM] | GI50 (SK-MEL-28 melanoma) | GI50 (SNB-19 CNS) |
| --- | --- | --- | --- | --- | --- | --- | --- | --- | --- | --- | --- | --- | --- | --- | --- | --- | --- | --- | --- | --- |
| CC1(C)O[C@@H]2C[C@H]3[C@@H]4C[C@H](F)C5=CC(=O)C=C[C@]5(C)[C@@]4(F)[C@@H](O)C[C@]3(C)[C@]2(C(=O)CO)O1 | > 100 µM | > 100 µM | > 100 µM | > 100 µM | > 100 µM | > 100 µM | > 100 µM | > 100 | > 100 µM | > 100 µM |  |  |  |  |  |  |  |  |  |  |
| COc1ccc(C(=O)c2sc3nc(-c4cccs4)ccc3c2N)cc1OC | > 100 µM | > 100 µM | > 100 µM | 17.4 µM | > 100 µM | > 100 µM | > 100 µM | > 100 | 70.4 µM | > 100 µM | 5.29 | 5.06 | 4.14 µM | 3.65 | 6.73 µM | 6.78 µM | 19.8 µM | 5.45 | 4.98 µM | > 100 µM |
| CC(=O)c1ccc(NC(=O)C(=O)C(C#N)CC(C)(C)C=O)cc1 (stereo unspecified) | > 100 µM | > 100 µM | > 100 µM | > 100 µM | > 100 µM | > 100 µM | > 100 µM | > 100 | > 100 µM | > 100 µM |  |  |  |  |  |  |  |  |  |  |
| O=c1c2cc3c(cc2c2cccc4c2n1CCC4)OCO3 | > 100 µM | 71.1 µM | > 100 µM | > 100 µM | > 100 µM | > 100 µM | > 100 µM | > 100 | > 100 µM | > 100 µM |  |  |  |  |  |  |  |  |  |  |
| C=C(C(=C)P(=S)(C(C)C)C(C)C)P(=S)(C(C)C)C(C)C | > 100 µM | > 100 µM | > 100 µM | > 100 µM | > 100 µM | > 100 µM | > 100 µM | > 100 | > 100 µM | > 100 µM |  |  |  |  |  |  |  |  |  |  |
| Cc1[nH]c2cc(F)ccc2c1-c1nc2c3cccnc3c3ncccc3c2[nH]1 | 1.19 µM | 1.5 µM | 0.564 µM | 1.66 µM | 0.697 µM | 1.56 µM | 2.65 µM | 2.91 | 1.72 µM | 3.87 µM | 0.289 | 0.164 | 0.205 µM | 0.436 | 0.0472 µM | 0.209 µM | 0.573 µM | 0.771 | 0.239 µM | 0.257 µM |
| CC(=O)O[C@H]1CC[C@@]2(C)C(=C/C(=N/OCCN3CCCC3)[C@H]3[C@@H]4CC[C@H](OC(C)=O)[C@@]4(C)CC[C@@H]32)C1 | > 100 µM | > 100 µM | 57.7 µM | > 100 µM | 38.1 µM | > 100 µM | > 100 µM | 53.3 | 64.1 µM | > 100 µM | > 100 | 27.8 | 23.3 µM | 12.5 | 19.6 µM | > 100 µM | 73.8 µM | 22 | 31.2 µM | 69.1 µM |
| COc1ccc2c(c1)-c1nn(CCCN(C)C)c3ccc([N+](=O)[O-])c(c13)N2 | 4.63 µM and 6.34 µM | 4.02 µM and 4.42 µM | 1.82 µM and 9.36 µM | 2.46 µM and 3.05 µM | 0.957 µM and 4.08 µM | 3.95 µM and 7.29 µM | 3.46 µM and 9.7 µM | 25.5 | 7.78 µM and 12.6 µM | 6.33 µM and 11.3 µM |  |  | 0.468 µM and 2.9 µM |  | 0.101 µM and 0.345 µM | 0.339 µM and 1.11 µM | 0.356 µM and 1.35 µM |  | 0.77 µM and 1.75 µM | 0.192 µM and 0.59 µM |
| NC(=O)CC(N=Cc1nc(-c2ccccc2)oc1O)C(=O)O (stereo unspecified) | > 100 µM | > 100 µM | > 100 µM | > 100 µM | > 100 µM | > 100 µM | > 100 µM | > 100 | > 100 µM | > 100 µM |  |  |  |  |  |  |  |  |  |  |
| CC1OC(CC(=O)O)CC2=C1C(=O)c1c(O)cccc1C2=O (stereo unspecified) | 0.334 µM | 0.243 µM | 0.0582 µM | 0.427 µM | 0.111 µM | 0.299 µM | 2.86 µM | 0.241 | 0.2 µM | 2.98 µM |  |  |  |  |  |  |  |  |  |  |
| CCC1(CN(C)C)CC/C(=C\c2ccc(OC)c(OC)c2)C1=O (stereo unspecified) | > 100 µM | > 100 µM | > 100 µM | > 100 µM | > 100 µM | > 100 µM | > 100 µM | > 69.1 | > 100 µM | > 100 µM |  |  |  |  |  |  |  |  |  |  |
| Cc1c2c(c(C)c3c1[nH]c1ccccc13)CN(C)CC2 | 27.4 µM | 29.4 µM | > 100 µM | 36.3 µM | 29.3 µM | 52.7 µM | > 100 µM | 67 | 36.2 µM | > 100 µM |  |  |  |  |  |  |  |  |  |  |
| NC(CSSCC(N)C(=O)O)C(=O)O (stereo unspecified) | > 100 µM | > 100 µM | > 100 µM | > 100 µM | > 100 µM | > 100 µM | > 100 µM | > 100 | > 100 µM | > 100 µM | > 100 | > 100 | > 100 µM | > 100 | > 100 µM | > 100 µM | > 100 µM | > 100 | > 100 µM | > 100 µM |
| CN(CCCCCl)P(=O)(OCc1ccc([N+](=O)[O-])o1)OCC1OC(n2cnc([N+](=O)[O-])c2N)C(O)C1O (stereo unspecified) | > 100 µM | > 100 µM | > 100 µM | > 100 µM | > 100 µM | > 100 µM | > 100 µM | > 100 | > 100 µM | > 100 µM | > 100 | > 100 | > 100 µM | > 100 | > 100 µM | > 100 µM | > 100 µM | > 100 | > 100 µM | > 100 µM |
| Cc1ccc(C2NC(=O)c3ccccc3N2)c(C)c1 (stereo unspecified) | 18.6 µM | > 100 µM | 1.61 µM | 34.9 µM | > 100 µM | 4.68 µM | > 86.5 µM | 12 | > 100 µM | > 40.8 µM |  |  |  |  |  |  |  |  |  |  |
| CN(C)c1cccc(F)c1C(=O)NC(=O)Nc1ccc(Cl)cc1 | 99 µM | > 100 µM | 18.1 µM | > 23.2 µM | > 100 µM | > 100 µM | > 100 µM | > 36.6 | > 100 µM | > 100 µM |  |  |  |  |  |  |  |  |  |  |
| CC(C)(C)N/N=C(\C(=O)NC1=C(Cl)C(=O)c2ccccc2C1=O)C1C=CCS1(=O)=O (stereo unspecified) | 45.6 µM | 35 µM | > 100 µM | 29.3 µM | 39.7 µM | 9.38 µM | 35.5 µM | > 100 | > 100 µM | > 100 µM |  |  |  |  |  |  |  |  |  |  |
